“And” between values parts separate entries of the source, which are not always exact repeats. Equal values may be shown once. Inconclusive results and toxic doses are left out. Rule for the calls: active = survival T/C of 150% or more; inactive = T/C below 125% in these data.
System: P388 leukemia ip, CD2F1 mice, survival T/C
Test: NCI In Vivo Anticancer Drug Screen. Data for tumor model P388 Leukemia (intraperitoneal) in CD2F1 (CDF1) mice
Conditions: endpoint: median survival time, higher = longer survival
Method in brief: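 Mice carrying the transplanted tumor received test compound or vehicle. Survival was recorded in each group, and the value is the treated-group measurement divided by that of the vehicle-treated control group.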

[1] = dose: 100.0 mg/kg/injection, schedule: Q04DX003 (ip), vehicle: saline
[2] = dose: 12.5 mg/kg/injection, schedule: Q01DX009 (ip), vehicle: saline with Tween-80
[3] = dose: 25.0 mg/kg/injection, schedule: Q01DX009 (ip), vehicle: saline with Tween-80
[4] = dose: 50.0 mg/kg/injection, schedule: Q01DX009 (ip), vehicle: saline with Tween-80
[5] = dose: 100.0 mg/kg/injection, schedule: Q01DX009 (ip), vehicle: saline with Tween-80
[6] = dose: 200.0 mg/kg/injection, schedule: Q01DX009 (ip), vehicle: saline with Tween-80
[7] = dose: 400.0 mg/kg/injection, schedule: Q01DX009 (ip), vehicle: saline with Tween-80
[8] = dose: 25.0 mg/kg/injection, schedule: Q01DX005 (ip), vehicle: saline with Tween-80
[9] = dose: 50.0 mg/kg/injection, schedule: Q01DX005 (ip), vehicle: saline with Tween-80
[10] = dose: 100.0 mg/kg/injection, schedule: Q01DX005 (ip), vehicle: saline with Tween-80
[11] = dose: 200.0 mg/kg/injection, schedule: Q01DX005 (ip), vehicle: saline with Tween-80
[12] = dose: 12.5 mg/kg/injection, schedule: Q01DX005 (ip), vehicle: saline with Tween-80

Measured: T/C

CC(=O)O.[Pb]
inactive: dose: 25.0 mg/kg/injection, schedule: Q04DX003 (ip), vehicle: saline with Tween-80 100 % of control | dose: 50.0 mg/kg/injection, schedule: Q04DX003 (ip), vehicle: saline with Tween-80 100 % of control | [1] 91 % of control

COc1ccc(-c2sc(/N=C/c3ccc(N(C)CCC#N)cc3)c(C#N)c2C)cc1OC
inactive: dose: 3.13 mg/kg/injection, schedule: Q01DX009 (ip), vehicle: Klucel (hydroxypropylcellulose) (HPC) 89 % of control | dose: 6.25 mg/kg/injection, schedule: Q01DX009 (ip), vehicle: Klucel (hydroxypropylcellulose) (HPC) 91 % of control | dose: 12.5 mg/kg/injection, schedule: Q01DX009 (ip), vehicle: Klucel (hydroxypropylcellulose) (HPC) 91 % of control | dose: 25.0 mg/kg/injection, schedule: Q01DX009 (ip), vehicle: Klucel (hydroxypropylcellulose) (HPC) 90 % of control

COc1ccccc1N=Nc1cccc[c]1[Hg][Cl]
inactive: dose: 9.0 mg/kg/injection, schedule: Q01DX009 (ip), vehicle: saline 107 % of control and 113 % of control and 118 % of control | dose: 18.0 mg/kg/injection, schedule: Q01DX009 (ip), vehicle: saline 114 % of control and 119 % of control | dose: 36.0 mg/kg/injection, schedule: Q01DX009 (ip), vehicle: saline 102 % of control and 113 % of control

Cc1nc(C#N)c(=N)n(O)c1Cl
inactive: dose: 6.25 mg/kg/injection, schedule: Q01DX009 (ip), vehicle: saline with Tween-80 99 % of control and 102 % of control and 123 % of control | [2] 104 % of control and 106 % of control | [3] 110 % of control and 113 % of control

OC1(c2ccccc2)c2ccccc2-c2ccccc21
inactive: dose: 100.0 mg/kg/injection, schedule: Q04DX003 (ip), vehicle: saline with Tween-80 109 % of control | dose: 200.0 mg/kg/injection, schedule: Q04DX003 (ip), vehicle: saline with Tween-80 109 % of control | dose: 400.0 mg/kg/injection, schedule: Q04DX003 (ip), vehicle: saline with Tween-80 104 % of control

Cc1cc(CC(C)O)n[nH]1 (centres undefined)
inactive: dose: 50.0 mg/kg/injection, schedule: Q01DX009 (ip), vehicle: Klucel (hydroxypropylcellulose) (HPC) 109 % of control | dose: 100.0 mg/kg/injection, schedule: Q01DX009 (ip), vehicle: Klucel (hydroxypropylcellulose) (HPC) 106 % of control | dose: 200.0 mg/kg/injection, schedule: Q01DX009 (ip), vehicle: Klucel (hydroxypropylcellulose) (HPC) 102 % of control

O=C1NN(c2ccccc2)C(=O)/C1=C\c1ccccc1
inactive: [4] 91 % of control | dose: 75.0 mg/kg/injection, schedule: Q01DX009 (ip), vehicle: saline with Tween-80 100 % of control | [5] 94 % of control | dose: 150.0 mg/kg/injection, schedule: Q01DX009 (ip), vehicle: saline with Tween-80 99 % of control | [6] 95 % of control | dose: 300.0 mg/kg/injection, schedule: Q01DX009 (ip), vehicle: saline with Tween-80 95 % of control | [7] 114 % of control | dose: 600.0 mg/kg/injection, schedule: Q01DX009 (ip), vehicle: saline with Tween-80 104 % of control

COc1ccc(C(C)c2cc3c(cc2OCCOC(C)=O)OCO3)cc1 (centres undefined)
inactive: dose: 100.0 mg/kg/injection, schedule: Q04DX002 (ip), vehicle: saline with Tween-80 103 % of control | dose: 200.0 mg/kg/injection, schedule: Q04DX002 (ip), vehicle: saline with Tween-80 100 % of control | dose: 400.0 mg/kg/injection, schedule: Q04DX002 (ip), vehicle: saline with Tween-80 100 % of control

Cc1ccc(C2(C(=O)C=[N+]=[N-])OC2(C)C)cc1 (centres undefined)
inactive: [8] 99 % of control | [9] 99 % of control | [10] 115 % of control | [11] 108 % of control

CC(=O)Oc1c(C)c(C)c(OC(C)=O)c(OC(C)=O)c1C
inactive: dose: 100.0 mg/kg/injection, schedule: Q04DX002 (ip), vehicle: Klucel (hydroxypropylcellulose) (HPC) 93 % of control | dose: 200.0 mg/kg/injection, schedule: Q04DX002 (ip), vehicle: Klucel (hydroxypropylcellulose) (HPC) 96 % of control | dose: 400.0 mg/kg/injection, schedule: Q04DX002 (ip), vehicle: Klucel (hydroxypropylcellulose) (HPC) 90 % of control

C1=C[N-]c2c3c(ccc2=C1)=CC=C[N-]3.C1=C[N-]c2c3c(ccc2=C1)=CC=C[N-]3.O=S(=O)(O)O.[Cu+2]
inactive: dose: 1.56 mg/kg/injection, schedule: Q04DX002 (ip), vehicle: Klucel (hydroxypropylcellulose) (HPC) 117 % of control | dose: 3.12 mg/kg/injection, schedule: Q04DX002 (ip), vehicle: Klucel (hydroxypropylcellulose) (HPC) 107 % of control | dose: 6.25 mg/kg/injection, schedule: Q04DX002 (ip), vehicle: Klucel (hydroxypropylcellulose) (HPC) 107 % of control | dose: 12.5 mg/kg/injection, schedule: Q04DX002 (ip), vehicle: Klucel (hydroxypropylcellulose) (HPC) 115 % of control

COC(=O)c1cccc2c[n+]3c(cc12)-c1[nH]c2cc(OC)ccc2c1CC3
inactive: [9] 100 % of control | [10] 99 % of control | [11] 108 % of control

CCN1C(=O)CC(SC2CC(=O)N(CC)C2=O)C1=O (centres undefined)
inactive: dose: 50.0 mg/kg/injection, schedule: Q01DX005 (ip), vehicle: Klucel (hydroxypropylcellulose) (HPC) 99 % of control | dose: 100.0 mg/kg/injection, schedule: Q01DX005 (ip), vehicle: Klucel (hydroxypropylcellulose) (HPC) 95 % of control | dose: 200.0 mg/kg/injection, schedule: Q01DX005 (ip), vehicle: Klucel (hydroxypropylcellulose) (HPC) 99 % of control

CCCCC(CCCC)=NNC(=S)SC
inactive: [4] 100 % of control | [5] 100 % of control

c1ccc2c(c1)oc1cc3c(cc12)n1nnnc1c1cccn31
inactive: [8] 92 % of control | [9] 97 % of control | [10] 100 % of control | [11] 100 % of control

CCCCN(CCCC)C(C)C(=O)c1ccc2cc(Br)c3ccccc3c2c1 (centres undefined)
inactive: [12] 110 % of control | [8] 101 % of control | [9] 99 % of control and 100 % of control | [10] 107 % of control | [11] 119 % of control

CC1=CC(C)=C(C#N)C2=S=C(c3ccccc3)C(=O)N12
inactive: dose: 6.25 mg/kg/injection, schedule: Q01DX005 (ip), vehicle: saline with Tween-80 97 % of control | [12] 94 % of control | [8] 94 % of control | [10] 88 % of control | [11] 88 % of control

O=C(O)CCOCCCOCCC(=O)O
inactive: dose: 50.0 mg/kg/injection, schedule: Q01DX005 (ip), vehicle: saline 95 % of control | dose: 100.0 mg/kg/injection, schedule: Q01DX005 (ip), vehicle: saline 98 % of control | dose: 200.0 mg/kg/injection, schedule: Q01DX005 (ip), vehicle: saline 100 % of control

COC(=O)C1=CN(c2ccccc2)C(=O)C1
inactive: dose: 100.0 mg/kg/injection, schedule: Q04DX003 (ip), vehicle: Klucel (hydroxypropylcellulose) (HPC) 118 % of control | dose: 200.0 mg/kg/injection, schedule: Q04DX003 (ip), vehicle: Klucel (hydroxypropylcellulose) (HPC) 114 % of control | dose: 400.0 mg/kg/injection, schedule: Q04DX003 (ip), vehicle: Klucel (hydroxypropylcellulose) (HPC) 108 % of control

Cn1/c2cc/c1=C(\c1ccccc1)c1ccc([n-]1)/C(c1ccccc1)=c1/cc/c([nH]1)=C(\c1ccccc1)c1ccc([n-]1)/C=2c1ccccc1.O.O=S(=O)(O)C(F)(F)F.[Cu+2]
inactive: [2] 102 % of control | [3] 91 % of control | dose: 50.0 mg/kg/injection, schedule: Q01DX009 (ip), vehicle: other 88 % of control | [4] 91 % of control

CNC(C)=O
inactive: [5] 95 % of control | [1] 90 % of control | [6] 95 % of control | dose: 200.0 mg/kg/injection, schedule: Q04DX003 (ip), vehicle: saline 95 % of control | [7] 95 % of control | dose: 400.0 mg/kg/injection, schedule: Q04DX003 (ip), vehicle: saline 100 % of control
